# Assays:
# [1] = test system: non-dialysis patient with anaemia associated with chronic kidney disease; assay: hsCRP levels by baseline hsCRP quartile in 28 week placebo controlled clinical study; format: in vivo, human
# Description: (§1) A 28 week randomized double blind placebo controlled clinical study in non-dialysis patient with anaemia associated with chronic kidney disease has been conducted. Participants were assessed for eligibility for inclusion in the study on the basis of the following (non-exhaustive) inclusion and exclusion criteria.
# In addition to analysis of the intention to treat population, several sub-group analyses were pre-specified including subgroups with baseline hsCRP quartiles of <0.9 mg/L, 0.9 to <2.6 mg/L, 2.60 to <6.60 mg/L and ≥6.60 mg/L.
# The changes in hsCRP levels in each quartile are given below in Tables 5 to 8.
# [2] = test system: non-dialysis patient with anaemia associated with chronic kidney disease; assay: SF-36 Vitality Domain score in 28 week randomized double blind placebo controlled clinical study; format: in vivo, human; conditions: for Adjusted mean SF-36 Vitality Change from Baseline at Week 28 (SE): 0-100 score; for adjusted mean treatment difference (CI) in SF-36 Vitality: dapro-placebo
# Description: as §1
# (§2) Enrolled participants were randomized 1:1 to receive either daprodustat or matching placebo tablets administered once daily.
# (§3) The treatment doses for participants in both treatment arms were titrated based on haemoglobin concentration as assessed by HemoCue. Haemoglobin concentration by HemoCue is assessed on day 1, and at weeks 2, 4, 8, 12, 16, 20, 24 and 28. The available dose steps of daprodustat and placebo were 1 mg, 2 mg, 4 mg, 6, mg, 8 mg, 10 mg, 12 mg and 16 mg. Dose modifications for participants followed the dose adjustment algorithm to achieve and maintain haemoglobin concentration within the target range of 11.0 to 12.0 g/dL outlined in Table 2.
# (§4) The Short form SF-36 questionnaire was completed by participants on day 1 and on weeks 8, 12 and 28, and the CKD-AQ questionnaire was completed by participants on week −2 (i.e. during screening period) and on day 1 and weeks 8, 12 and 28.
# (§5) • Mean change in the SF-36 Vitality Domain score (0-100) between baseline and week 28. This was a principal secondary endpoint and the study was appropriately powered for this endpoint. • Mean change from baseline by domain and overall symptoms score on the CKD-AQ (the study was not powered for this secondary endpoint, so only nominal significance can be assessed).
# (§6) For the endpoints of mean change in haemoglobin and SF-36 Vitality Domain, an analysis of covariance model was used including covariates of baseline level, treatment, and region. The model provided point estimate and two-sided 95% CI for the treatment effect, together with a one-sided p-value. Significance was determined if the one-sided p-value was less than 0.025. The analysis population for the haemoglobin and SF-36 Vitality Domain endpoints was the intent-to-treat population. The analysis population for the Chronic Kidney Disease Anemia Questionnaire Tired/Low Energy/Weak Domain endpoint was the on treatment population and analysis was based on a mixed model repeated measures model fitted from baseline up to Week 28 with factors for treatment, time, region, baseline value, baseline value by time, and treatment by time interactions.
# For the endpoints of mean change in haemoglobin and SF-36 Vitality Domain by subgroup, a similar model to that described above was used, adding covariates for subgroup and subgroup by treatment interaction term. The analysis population for these endpoints was the intent-to-treat population.
# For endpoints of difference in SF-36 Vitality domain response rate, a Cochran-Mantel-Haenszel chi-squared test was used adjusting for treatment, baseline level, and region, to make comparisons between the treatment groups. Significance was determined if the one-sided p-value was less than 0.025. The analysis population for these endpoints was the intent-to-treat population.
# [3] = test system: non-dialysis patient with anaemia associated with chronic kidney disease; assay: CKD-AQ Tired/Low Energy/Weak Domain score in 28 week placebo controlled clinical study; format: in vivo, human; conditions: on treatment population
# Description: as §1, §2, §4, §5, §6
# A simple linear transformation was used to recalibrate the items to a 0-100 scale as outlined in Tables 11 and 12. […]
# [4] = test system: non-dialysis patient with anaemia associated with chronic kidney disease; assay: Haemoglobin concentration change from baseline to evaluation period in 28 week placebo controlled clinical study; format: in vivo, human
# Description: as §1, §2, §3
# The primary objective of the trial was to compare the efficacy of daprodustat to placebo on mean change in haemoglobin concentration. The primary endpoint was the mean change in haemoglobin concentration between baseline (day 1) and the evaluation period (mean over week 24 to week 28 inclusive).
# For the endpoints of mean change in haemoglobin and SF-36 Vitality Domain, an analysis of covariance model was used including covariates of baseline level, treatment, and region. The model provided point estimate and two-sided 95% CI for the treatment effect, together with a one-sided p-value. Significance was determined if the one-sided p-value was less than 0.025. The analysis population for the haemoglobin and SF-36 Vitality Domain endpoints was the intent-to-treat population. […]
# [5] = test system: patients with type 2 diabetes mellitus, non-dialysis dependent chronic kidney disease and anemia; conditions: at 25 weeks, cited from earlier work
molecule,measurement,setting,value
"O=C(O)CNC(=O)C1C(=O)N(C2CCCCC2)C(=O)N(C2CCCCC2)C1=O [Daprodustat, N-((1,3-dicyclohexylhexahydro-2,4,6-trioxopyrimidin-5-yl)carbonyl)glycine]",Geometric mean hsCRP,"[1]; baseline hsCRP 0.9-<2.60 mg/L, Baseline",1.46 mg/L
same,Geometric mean hsCRP,"[1]; baseline hsCRP 0.9-<2.60 mg/L, Day 1",1.46 mg/L
same,Geometric mean hsCRP,"[1]; baseline hsCRP 0.9-<2.60 mg/L, End of Treatment",2.55 mg/L
same,Geometric mean hsCRP,"[1]; baseline hsCRP 0.9-<2.60 mg/L, Week 28",2.55 mg/L
same,Geometric mean hsCRP,"[1]; baseline hsCRP 2.60-<6.60 mg/L, Baseline",3.93 mg/L
same,Geometric mean hsCRP,"[1]; baseline hsCRP 2.60-<6.60 mg/L, Day 1",3.93 mg/L
same,Geometric mean hsCRP,"[1]; baseline hsCRP 2.60-<6.60 mg/L, End of Treatment",3.83 mg/L
same,Geometric mean hsCRP,"[1]; baseline hsCRP 2.60-<6.60 mg/L, Week 28",3.85 mg/L
same,Geometric mean hsCRP,"[1]; baseline hsCRP <0.9 mg/L, Baseline",0.48 mg/L
same,Geometric mean hsCRP,"[1]; baseline hsCRP <0.9 mg/L, Day 1",0.48 mg/L
same,Geometric mean hsCRP,"[1]; baseline hsCRP <0.9 mg/L, End of Treatment",0.86 mg/L
same,Geometric mean hsCRP,"[1]; baseline hsCRP <0.9 mg/L, Week 28",0.85 mg/L
same,Geometric mean hsCRP,"[1]; baseline hsCRP ≥6.60 mg/L, Baseline",16.96 mg/L
same,Geometric mean hsCRP,"[1]; baseline hsCRP ≥6.60 mg/L, Day 1",16.79 mg/L
same,Geometric mean hsCRP,"[1]; baseline hsCRP ≥6.60 mg/L, End of Treatment",8.92 mg/L
same,Geometric mean hsCRP,"[1]; baseline hsCRP ≥6.60 mg/L, Week 28",9.04 mg/L
same,change in hsCRP levels,"[1]; subjects with high baseline hsCRP (≥6.60 mg/L), similar reductions in placebo group",large reductions in hsCRP levels
same,SF-36 vitality domain scores for daprodustat and placebo,[2]; at week 12,not distinguishable
same,"adjusted difference in response rate (dapro-placebo), ≥6.0 point SF-36 Vitality increase",[2]; baseline to week 28,"0.13 (0.04, 0.22)"
same,Baseline SF-36 Vitality Sub-score Mean (SD),"[2]; baseline, intention to treat population, includes imputed values",50.74 (21.175)
same,Adjusted Mean Treatment Difference (dapro − placebo) in SF-36 Vitality change from baseline at week 28,[2]; intention to treat population,5.36
same,Adjusted mean SF-36 Vitality Change from Baseline at Week 28 (SE),[2]; intention to treat population,7.29 (1.121)
same,Adjusted mean SF-36 Vitality Change from Baseline at Week 28 (SE),"[2]; intention to treat population, listed as daprodustat",7.29
same,participants with a ≥6.0 point difference from baseline to week 28 in the SF-36 Vitality Sub-score,"[2]; responder rate, intention to treat population",58%
same,adjusted mean treatment difference (CI) in SF-36 Vitality,[2]; subgroup baseline hsCRP 0.9 to <2.6 mg/L,"1.09 (−4.86, 7.04)"
same,adjusted mean SF-36 Vitality Change,"[2]; subgroup baseline hsCRP 0.9 to <2.6 mg/L, week 28",4.98
same,adjusted mean treatment difference (CI) in SF-36 Vitality,[2]; subgroup baseline hsCRP 2.60 to <6.60 mg/L,"4.38 (−1.77, 10.53)"
same,adjusted mean SF-36 Vitality Change,"[2]; subgroup baseline hsCRP 2.60 to <6.60 mg/L, week 28",7.92
same,adjusted mean treatment difference (CI) in SF-36 Vitality,[2]; subgroup baseline hsCRP <0.9 mg/L,"10.0 (3.53, 16.47)"
same,adjusted mean SF-36 Vitality Change,"[2]; subgroup baseline hsCRP <0.9 mg/L, week 28",9.84
same,adjusted mean treatment difference (CI) in SF-36 Vitality,[2]; subgroup baseline hsCRP ≥6.60 mg/L,"7.71 (1.62, 13.80)"
same,adjusted mean treatment difference (CI) in SF-36 Vitality,"[2]; subgroup baseline hsCRP ≥6.60 mg/L, listed as daprodustat",7.71
same,adjusted mean SF-36 Vitality Change,"[2]; subgroup baseline hsCRP ≥6.60 mg/L, week 28",8.24
same,adjusted mean treatment difference in SF-36 Vitality domain subscore,[2]; subjects having baseline haemoglobin <9 g/dL,7.44
same,adjusted mean treatment difference in SF-36 Vitality,"[2]; subjects having baseline haemoglobin >11 g/dL, small number of subjects",−7.13
same,adjusted mean treatment difference in SF-36 Vitality domain subscore,[2]; subjects having baseline haemoglobin ≥9 to <10 g/dL,5.25
same,adjusted mean treatment difference in SF-36 Vitality domain subscore,[2]; subjects having baseline haemoglobin ≥10 to ≤11 g/dL,6.01
same,Week 28 SF-36 Vitality Sub-score Mean (SD),"[2]; week 28, intention to treat population, includes imputed values",58.40 (18.312)
same,Adjusted Mean Treatment Difference (dapro − placebo) on CKD-AQ Tired/Low Energy/Weak Domain,[3]; baseline to week 28,5.91
same,Adjusted mean change from baseline to week 28 on CKD-AQ Tired/Low Energy/Weak Domain (SE),[3],8.72 (1.086)
same,Adjusted mean change from baseline to week 28 on CKD-AQ Tired/Low Energy/Weak Domain (SE),[3]; listed as daprodustat,8.72
same,haemoglobin concentration compared to placebo over the treatment period,[4]; one sided superiority p-value <0.0001,significantly increased haemoglobin concentration
same,adjusted mean treatment difference in haemoglobin concentration,[4]; subjects having baseline haemoglobin >11 g/dL,0.76 g/dL
same,adjusted mean treatment difference in haemoglobin concentration,[4]; subjects having baseline hsCRP ≥6.60 mg/L,1.25 g/dL
darbepoetin alfa,mean change in SF-36 Vitality domain,"[5]; versus 4.2±19 placebo, P=0.196",5.3±20
same,percentage of responders having a ≥5-point increase in SF-36 Vitality domain,"[5]; versus 49% placebo, nominal P=0.027",54%
